{"source": "patent US7262212B2", "about": "“2,3-dihydro-6-nitroimidazo[2,1-b]oxazoles” (Otsuka Pharmaceutical Co., Ltd., priority 2002, dated 2007)", "origin": "cited, not measured here", "system": "multi-drug-resistant Mycobacterium tuberculosis", "details": "multi-drug-resistant strain; cited from earlier work"}
{"compound": "CCC1Cn2cc([N+](=O)[O-])nc2O1", "note": "(stereo not shown) [CGI-17341]", "values": [{"measurement": "bactericidal action", "result": "has a bactericidal action"}]}
